# Source: patent US20120108607A1, “OPTICALLY ACTIVE 3-[(PHENYLPIPERAZIN-1-YL)ALKYL]-3- ALKYL-OXINDOLE DERIVATIVES HAVING CNS ACTIVITY” (priority 2009, published 2012)
# “And” between values parts separate entries of the source, which are not always exact repeats. Equal values may be shown once. “Also recorded” adds a separate entry of the source.
# Experiments:
# 5-HT2A receptors = biological target: T1, 5-HT2A receptors (Rattus norvegicus, UniProt P14842); assay: receptor-binding assay, 5-HT2A (3H-ketanserine, frontal cortex); settings: for Ki: 3H-ketanserine 1.0 nM, frontal cortex
# T1 construct: brain tissues from male Wistar rats weighing 120-200 g; from tissue
# From the text: In the receptor-binding assays, brain tissues from male Wistar rats weighing 120-200 g or cloned human 5-HT6 or D4 receptors were used.
# The basic information with regard the receptor-binding assay is disclosed in Table 1.
# [1] = biological target: T2, cloned human D4 receptors (Homo sapiens, UniProt P21917); assay: receptor-binding assay, D4 (3H-YM-09151-2, SF9 cells); settings: for Ki: 3H-YM-09151-2 0.28 nM, SF9 cells
# T2 construct: expressed in transfected cells
# T2 sequence (P21917 1-419): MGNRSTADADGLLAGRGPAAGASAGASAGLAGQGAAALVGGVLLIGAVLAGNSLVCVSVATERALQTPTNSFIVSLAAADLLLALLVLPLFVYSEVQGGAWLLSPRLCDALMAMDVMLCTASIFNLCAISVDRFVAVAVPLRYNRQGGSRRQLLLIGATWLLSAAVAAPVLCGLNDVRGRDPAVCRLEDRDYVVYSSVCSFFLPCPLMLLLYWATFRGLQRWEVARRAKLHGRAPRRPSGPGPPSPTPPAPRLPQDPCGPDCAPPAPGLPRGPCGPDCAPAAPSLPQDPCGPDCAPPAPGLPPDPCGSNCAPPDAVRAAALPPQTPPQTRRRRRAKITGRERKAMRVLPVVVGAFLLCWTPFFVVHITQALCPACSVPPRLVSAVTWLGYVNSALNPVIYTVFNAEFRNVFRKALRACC
# Protocol: (§1) In the receptor-binding assays, brain tissues from male Wistar rats weighing 120-200 g or cloned human 5-HT6 or D4 receptors were used. The protein contents of the membrane preparates were determined according to Lowry (Lowry O. H., Rosenbrough N. J., Farr A. L., Randall R. J., Protein measurement with the Folin-Phenol reagents. J Biol Chem, 193: 265-275 (1951).
# (§2) The basic information with regard the receptor-binding assay is disclosed in Table 1. The binding assays were carried out according to the method of Leysen (Leysen J. E, Niemegeers C. J. E, Van Nueten J. M., Laduron P. M.: ^[3H]Ketanserin (R41468), a selective ^[3H]ligand for Serotonine2 receptor binding. Mol Pharmacol, 21: 301-314 (1981)). The tested compound was deemed to be effective in the case when the Ki value was smaller than 100 nM.
# [2] = biological target: T3, cloned human 5-HT6 receptors (Homo sapiens, UniProt P50406); assay: receptor-binding assay, 5-HT6 (3H-LSD, HEK 293 cells); settings: for Ki: 3H-LSD 2.7 nM, HEK 293 cells
# T3 construct: expressed in transfected cells
# Protocol: as §1, §2
# male DBA mice = assay: Porsolt's test (antidepressant effect); assay type: in vivo, mouse; settings: for Porsolt-test (model for antidepressant effect), MED: ip., 30 minutes before the test, p<0.05
# Protocol: The antidepressant effect of the compounds of the Formula (I) has been established in Porsolt's test in male DBA mice weighing 20 to 25 grams. The swimming experiment was carried out in cylinders of 17.7 cm height and 12 cm diameter (Porsolt, R. D.: Behavioral despair. In: Enna, S. J., Malick, J. B., and Richelson, E. (eds.): “Antidepressants: Neurochemical, Behavioral, and Clinical Prespectives.” New York: Raven Press, 1981. pp. 121-139). In each experiment, four cylinders were used simultaneously. The animals were treated 30 minutes before the test with the test substances or with the vehicle in the dose of 1-3-10 mg/kg i.p. Animals were allowed to stay in the cylinder for six minutes. In the first two minutes, no measurement was made since this period was considered as the adaptation period. In the following four minutes (minutes 3 to 6 of the experiment) the time spent in immobile state was determined. The immobile time was registered for each animal with a precision of one second. The average was calculated for each group and the percentage effect was calculated for each treated group with reference for the control group. The statistical significance of the differences between groups was analyzed by […].
# On the basis of the statistical significance determined for the difference of each dose from the control, MED (minimum effective dose) values were calculated. […] A significant decrease of time spent in immobility was interpreted as an antidepressant effect.
# male NMRI mice = assay: permanent focal cerebral ischemia model (neuroprotective effect); assay type: in vivo, mouse; settings: ip., 30 minutes after surgery
# Protocol: The neuroprotective effect of the compounds of the Formula (I) was tested in the permanent focal cerebral ischemia model according to the modified method of Karkoutly and coworkers (Karkoutly, C., Backhauss, C., Nuglisch, J., Krieglstein, J.: The measurement of the infarcted area after middle cerebral artery occlusion in the mouse: a screening model. In Krieglstein, J., Oberpichler, H. ed. Pharmacology of Cerebral Ischemia 1990. Wissenschaftliche Verlagsgesellschaft mbH Stuttgart. 63-69 (1990).).
# Male NMRI mice weighing 30 to 35 grams were anesthetized with 2,2,2-tribromoethanol administered intraperitoneally in the dose of 500 mg/kg (20 ml/kg). During anesthesia, surgery was performed according to the surgical protocol of Welsh and coworkers (Welsh, F. A., Sakamoto, T., McKee, A., Sims, R. E.: Effect of lactacidosis on pyridine nucleotide stability during ischemia in mouse. J. Neurochem. 49: 846-851 (1987)). The distal part of the middle […] artery (MCA) was occluded with electric cauter. Test compounds were administered intraperitoneally 30 minutes after surgery in the dose of 0.1-0.3-1.0-3.0-10.0 mg/kg). After 48 hours, mice were anesthetised by 120 mg/kg sodium pentobarbital intraperitoneally. The brains were perfused through the left ventricle with 2 ml of 4% 2,3,5-triphenyl-tetrazolium-chloride (TTC) solution. After one hour, the brains was removed and placed into ice-cool saline for one to two minutes. Subsequently the brains were placed into 8% aqueous formaldehyde solution. After 24 hours, the area of white lesions was determined by a computerized image analysis software. The statistical evaluation was performed by variance analysis followed by Duncan-test.
# male Wistar rats = assay: Vogel's drinking conflict model (anxiolytic effect); assay type: in vivo, rat; settings: ip., 30 minutes before the test, MED = minimum dose resulting in statistically significant effect
# Protocol: Vogel's drinking conflict model was used for establishing the anxiolytic effect (Vogel at el., Psychopharmacologia, 21, 1, 1971). Male Wistar rats weighing 200 to 220 grams were restrained from drinking for 48 hours and deprived from feed for 24 hours prior to the experiment. The test substances or the vehicle were administered to the animals in a dose of 5.0-10.0-20.0 mg/kg intraperitoneally 30 minutes before the test. The test chamber was provided with a drinking tube which allowed the animals to drink. However, after each twentieth licking, the apparatus delivered a 0.7 mA electric shock to the animal. During the five-minute measurement period, the number of electric shocks was registered which the animals tolerated to appease their thirst. The effect of the test substance was expressed in the percentage increase in the number of tolerated electric shocks. The minimum effective dose (MED) was determined for each compound.
# T1 sequence (P14842 whole entry): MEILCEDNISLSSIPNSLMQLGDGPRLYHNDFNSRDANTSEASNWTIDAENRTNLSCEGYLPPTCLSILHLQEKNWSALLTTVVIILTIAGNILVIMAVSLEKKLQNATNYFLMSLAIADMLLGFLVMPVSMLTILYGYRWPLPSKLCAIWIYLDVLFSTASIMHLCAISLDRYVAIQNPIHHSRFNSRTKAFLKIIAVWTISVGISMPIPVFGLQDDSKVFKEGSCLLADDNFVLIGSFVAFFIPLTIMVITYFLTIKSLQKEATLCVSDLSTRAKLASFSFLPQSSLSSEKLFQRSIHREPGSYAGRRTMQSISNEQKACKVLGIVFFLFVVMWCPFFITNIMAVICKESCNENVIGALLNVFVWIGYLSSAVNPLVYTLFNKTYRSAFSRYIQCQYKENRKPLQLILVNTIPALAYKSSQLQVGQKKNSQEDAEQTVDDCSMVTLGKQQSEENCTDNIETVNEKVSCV
# T3 sequence (P50406 whole entry): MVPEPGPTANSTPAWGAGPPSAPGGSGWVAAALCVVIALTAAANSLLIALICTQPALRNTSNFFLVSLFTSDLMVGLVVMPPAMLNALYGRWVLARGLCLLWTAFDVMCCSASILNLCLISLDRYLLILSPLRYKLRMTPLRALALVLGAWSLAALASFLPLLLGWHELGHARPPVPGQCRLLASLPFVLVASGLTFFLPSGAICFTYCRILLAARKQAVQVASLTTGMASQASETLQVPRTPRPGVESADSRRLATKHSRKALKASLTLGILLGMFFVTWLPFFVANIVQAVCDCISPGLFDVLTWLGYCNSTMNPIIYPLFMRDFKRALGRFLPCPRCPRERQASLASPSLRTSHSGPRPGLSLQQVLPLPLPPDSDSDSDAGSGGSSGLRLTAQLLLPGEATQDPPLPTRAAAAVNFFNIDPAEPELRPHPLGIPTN
compound,measurement,setting,value
"CCC1(CCCCN2CCN(c3ccc(Cl)cc3)CC2)C(=O)Nc2c(Cl)cc(Cl)cc21 (racemic) [Compound of the Formula (II), 5,7-dichloro-3-{4-[4-(4-chlorophenyl)-piperazin-1-yl]butyl}-3-ethyl-1,3-dihydro-2H-indol-2-one]",affinity to the central 5-HT2A receptors (in words),5-HT2A receptors,affinity greater by several orders of magnitude
same,Ki,5-HT2A receptors,50 nM
same,affinity to the central D4 receptors (in words),[1],did not show any significant binding
same,Ki,[1],> 100 nM
same,affinity towards central 5-HT6 receptors (in words),[2],significant affinity
same,Ki,[2],9 nM
same,"Porsolt-test (model for antidepressant effect), MED",male DBA mice,3 mg/kg
same,antidepressant activity in Porsolt's test (in words),male DBA mice; mice,"significant, dose-dependent antidepressant activity"
same,melting point,,152 to 154 °C
same,"Permanent cerebral ischemia model (model for neuroprotective effect), MED",male NMRI mice,0.1 mg/kg
same,"Vogel-test (model for anxiolytic effect), MED",male Wistar rats,5 mg/kg
"CCC1(CCCCN2CCN(c3ccc(Cl)cc3)CC2)C(=O)Nc2c(Cl)cc(Cl)cc21 (single isomer, unassigned; (+)) [(+)-enantiomer of the Formula (I), (+)-5,7-dichloro-3-{4-[4-(4-chlorophenyl)-piperazin-1-yl]butyl}-3-ethyl-1,3-dihydro-2H-indol-2-one]",Ki,5-HT2A receptors,> 200 nM
same,Ki,[1],35 nM
same,affinity towards central 5-HT6 receptors (in words),[2],significant affinity
same,Ki,[2],11 nM
same,"Porsolt-test (model for antidepressant effect), MED",male DBA mice,No effect
same,melting point,,139 to 141 °C
same,"Permanent cerebral ischemia model (model for neuroprotective effect), MED",male NMRI mice,ineffective; also recorded: No effect
same,"Vogel-test (model for anxiolytic effect), MED",male Wistar rats,10 mg/kg
"CCC1(CCCCN2CCN(c3ccc(Cl)cc3)CC2)C(=O)Nc2c(Cl)cc(Cl)cc21 (single isomer, unassigned; (-)) [(−)-enantiomer of the Formula (I), (−)-5,7-dichloro-3-{4-[4-(4-chlorophenyl)-piperazin-1-yl]-butyl}-3-ethyl-1,3-dihydro-2H-indol-2-one]",affinity to the central 5-HT2A receptors (in words),5-HT2A receptors,affinity greater by several orders of magnitude
same,Ki,5-HT2A receptors,42 nM
same,affinity to the central D4 receptors (in words),[1],significant affinity
same,Ki,[1],13 nM
same,affinity towards central 5-HT6 receptors (in words),[2],not bound
same,"Porsolt-test (model for antidepressant effect), MED",male DBA mice,No effect
same,melting point,,139 to 140 °C
same,"Permanent cerebral ischemia model (model for neuroprotective effect), MED",male NMRI mice,3 mg/kg and 3.0 mg/kg
same,"Vogel-test (model for anxiolytic effect), MED",male Wistar rats,No effect
same,"Vogel-test (model for anxiolytic effect), MED","male Wistar rats; listed as (−)-5,7-dichloro-3-{4-[4-(4-chlorophenyl)-piperazin-1-yl]butyl}-3-ethyl-1,3-dihy",did not show any anxiolytic effect
